Assay results published in PubChem BioAssay (NCI).
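Results reflect a 48-hour exposure of cells in 96-well plates to compound at five concentrations. Definition used: TGI = concentration required for complete inhibition of growth.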

Key:
Assay in all cases: NCI anticancer screen, dose series, 48 h
MDA-MB-435 = test system: MDA-MB-435
K-562 leukemia = test system: K-562 leukemia
LOX IMVI melanoma = test system: LOX IMVI melanoma
HOP-62 NSCLC = test system: HOP-62 NSCLC
M14 melanoma = test system: M14 melanoma
SK-MEL-5 melanoma = test system: SK-MEL-5 melanoma
MCF7 breast = test system: MCF7 breast
SN12C renal = test system: SN12C renal
NCI/ADR-RES ovarian = test system: NCI/ADR-RES ovarian
MOLT-4 leukemia = test system: MOLT-4 leukemia
SF-295 CNS = test system: SF-295 CNS
TK-10 renal = test system: TK-10 renal
COLO 205 colon = test system: COLO 205 colon
CCRF-CEM leukemia = test system: CCRF-CEM leukemia
MALME-3M melanoma = test system: MALME-3M melanoma
UACC-257 melanoma = test system: UACC-257 melanoma
HCT-15 colon = test system: HCT-15 colon
SK-MEL-28 melanoma = test system: SK-MEL-28 melanoma
RXF 393 renal = test system: RXF 393 renal
NCI-H522 lung = test system: NCI-H522 lung
PC-3 prostate = test system: PC-3 prostate
BT-549 breast = test system: BT-549 breast
OVCAR-3 ovarian = test system: OVCAR-3 ovarian
SW-620 colon = test system: SW-620 colon
NCI-H23 lung = test system: NCI-H23 lung
DU-145 prostate = test system: DU-145 prostate
HCT-116 colon = test system: HCT-116 colon
KM12 colon = test system: KM12 colon
SF-539 CNS = test system: SF-539 CNS
RPMI-8226 leukemia = test system: RPMI-8226 leukemia
HL-60(TB) leukemia = test system: HL-60(TB) leukemia
CAKI-1 renal = test system: CAKI-1 renal
A498 renal = test system: A498 renal
U251 CNS = test system: U251 CNS
A549 NSCLC = test system: A549 NSCLC
SNB-19 CNS = test system: SNB-19 CNS
T-47D breast = test system: T-47D breast
UACC-62 melanoma = test system: UACC-62 melanoma
SF-268 CNS = test system: SF-268 CNS
786-0 renal = test system: 786-0 renal
MDA-N = test system: MDA-N
EKVX NSCLC = test system: EKVX NSCLC
HOP-92 NSCLC = test system: HOP-92 NSCLC
OVCAR-5 ovarian = test system: OVCAR-5 ovarian
NCI-H226 lung = test system: NCI-H226 lung
NCI-H460 lung = test system: NCI-H460 lung
MDA-MB-231 breast = test system: MDA-MB-231 breast
SK-OV-3 ovarian = test system: SK-OV-3 ovarian
HS 578T breast = test system: HS 578T breast
OVCAR-8 ovarian = test system: OVCAR-8 ovarian
IGROV1 ovarian = test system: IGROV1 ovarian
SR leukemia = test system: SR leukemia
HT29 colon = test system: HT29 colon
SK-MEL-2 melanoma = test system: SK-MEL-2 melanoma
ACHN renal = test system: ACHN renal
UO-31 renal = test system: UO-31 renal
HCC-2998 colon = test system: HCC-2998 colon
OVCAR-4 ovarian = test system: OVCAR-4 ovarian

Measured: TGI

Cc1[nH]c(=O)nc2nc3ccc(Cl)cc3c(N(CCO)CCO)c12
48 µM: NCI-H522 lung
> 100 µM: all other assays above
